Measured values from US10358416B2, “Substituted pyrrolidines as G-protein coupled receptor 43 agonists” (Ogeda SA, priority 2009, dated 2019).

System: ob/ob mice
Assay: Oral glucose tolerance test (OGTT) in ob/ob mice
Type: in vivo
Settings: bi-daily 50 mg/kg during 28 days, AUC from -15 to 120 min
Procedure: Ob/ob or obese mice are leptin-deficient mice that eat excessively and become profoundly obese, hyperinsulinemic and hyperglycemic. It is an animal model of type II diabetes. Such model can be used for oral glucose tolerance tests (OGTTs). A total of sixteen (16) male ob/ob mice (6 weeks of age) were obtained from Harlan. Upon arrival to the animal unit, mice were housed 4 per cage in rodent cages mounted with feeders containing regular chow. The mice were put in a 12/12h light-dark cycle (light from 0600-1800 h) with controlled temperature conditions (22-24° C.). Fed blood glucose and body-weight was measured on day −2 in the morning between 08:00 AM and 09:00 AM. Animals were randomized into 2 groups according to fed glucose levels (on day −2). […]
Day 1 is the first day of dosing. […] At −15 min, blood glucose was measured (using a glucose analyzer) and animals were dosed with compounds of the invention or vehicle. At time point 0, blood glucose was measured again and glucose was administered by oral gavage (1 g/kg glucose). The blood glucose was then measured at time points 15, 30, 45, 60 and 120 minutes. […] The percentages of AUC inhibition induced by compounds of the invention were calculated as follows: % of AUC inhibition: [1−(AUC compound/AUC vehicle)]*100.

For `COc1ccccc1-c1ccc(C(=O)N2[C@@H](c3ccccc3Cl)CC[C@H]2C(=O)O)cc1` [Compound 1, (2S,5R)-5-(2-chlorophenyl)-1-(2′-methoxy-[1,1′-biphenyl]-4-carbonyl)pyrrolidine-2-carboxylic acid], the “% of AUC inhibition (blood glucose AUC, OGTT)” value was 40%.
